The subject of one series is mouse colons. The following applies: cited from earlier work.
The nature of series [1]: Experimental administration of potassium butyrate capsules as a weight loss agent to two human volunteers. The series is classed as in vivo. Also on record: triglyceride values / total cholesterol / HDL / LDL / triglycerides: unit not given here. Here is the method: Based on the inherent safety of butyrate as discussed in medical literature, experimental administration of butyrate was begun on two volunteers. Tests on the two human volunteers has produced weight loss of 17 pounds and 40 pounds respectively at a dosage of 3-5 capsules, once or twice daily (volunteer #1); or 3-5 capsules three times per day (volunteer #2). Each capsule contained approximately 140 mg of potassium butyrate at the start of the test period, and 231 mg each at the end of the test period. The butyrate capsules typically contain 231 to 287 mg of potassium butyrate and 345 to 431 mg of corn starch and 345 to 431 mg of sodium bicarbonate in a 920 to 1 100 mg Size 0 Lilly gelatin capsule. The potassium butyrate is prepared by oxidizing 1-butanol with potassium permanganate in aqueous solution at between 180° F. and 212° F. This reaction produces manganese dioxide and butyric acid and KOH. The manganese dioxide is quite insoluble and is filtered out, and the butyric acid is then neutralized by the potassium hydroxide formed, thus forming the salt, potassium butyrate. The following reactions are thought to produce the potassium butyrate:
The inventor, after having been convinced by the medical literature of the inherent safety of butyrate in humans, began experimental administration of potassium butyrate as a weight loss agent to two volunteers, one of which was […]. The starting dose was 23 mg twice a day, in capsules containing 230 mg of a 10% mixture each. Volunteer #1's starting weight then was 185 lb measured in the morning, fasting. Volunteer #1's height was […] making their body mass index (BMI) […]. Note this is in the range regarded as being overweight (25-30). The dose was increased to 66 mg twice a day a couple of days later, and after 20 days the weight declined to 181 lb. The dose was increased to 130 mg twice a day before meals after about a month. Weight after 2 months was 174 lb. During the 4th through 7th month, the dose averaged 280 mg twice a day on about half the days, skipping it on alternate days. Weight reached its lowest point after about 7 months: 168 lb, BMI 24.5, which is the upper range of normal. After that, the dose has been an average of […] once a day, taken before meals, but only used on alternate days. The weight on this low dose rose to 174 lb and has stayed within 4 lb of that for the last 5 months.
Another test subject, volunteer #2, started on potassium butyrate when weight was 256 lb, height 5′3″, BMI 40. Prior to this use of butyrate, subject's most successful weight losses was 50 lb over a 3 month period while on Optifast program, a 400 calorie a day supplemented fasting program.
The starting dose of butyrate was 40 mg three times a day. It was rapidly escalated to 560 mg before each meal and continued on that dose for about 6 months, when the dose was increased to 800 mg three times a day. Weight after 6 months was 222 lbs. The same dose was continued from that point for another 6 months. Then their weight was 220. Dose was then increased to 1150 mg three times a day for another 8 days. Then their weight was 216 after about a year, for a total of 40 lbs of weight loss during this slightly more than one year duration clinical trial. BMI declined to 35.

Series [2] in a line: About 9 week (67 day) test in adult mice with butyrate added to food. The series is classed as in vivo. The following applies: 67 day test period. As to the method: Another test on adult mice was run for about 9 weeks. Butyrate was mixed with chocolate and/or cornstarch and the mixture was added to the mice's food (a commercial guinea pig food—Aytec Supreme Daily Blend Guinea Pig Diet). The butyrate dose started at 11.1 mg per mouse twice a day at the beginning of the study and ended up at 58 mg per mouse twice a day at the end of the study. The non-butyrate-fed mice had the same chocolate and/or cornstarch added to their food in equal weight compared to the butyrate-fed mice. The four butyrate mice gained an average of 50 mg each over the 67 day test period, and the four non-butyrate mice gained an average of 325 mg each over the 67 day test period. While no weight loss occurred in either group the butyrate mice gained less weight, by a ratio of about 6.5 to 1.

For series [3] the following is noted: cited from earlier work.
Series [4] is described as follows: 10 week experiment in adolescent common white mice fed K butyrate in chocolate. The series is classed as in vivo. As to the method:
Two mouse experiments involved 8 adolescent common white mice, still in the growth period. Four were assigned to the butyrate group and were fed K butyrate mixed in pieces of chocolate 300-400 mg size twice a day, and the other four mice were assigned to the non-butyrate group and were fed the same size pieces of plain chocolate. Both groups of mice were otherwise cared for in an identical fashion and fed twice as many food pellets as recommended. The dose of butyrate initially chosen was 3.47 mg per dose scaled down from the human dose according to the ratio of body surface area of mouse compared to man. This was estimated at 1:250.

The values below come from patent publication US6613356B1, “Weight loss medication and method” (priority 2000, dated 2003).

Read-outs that look alike come from different tables or passages of the source.

With `CCCC(=O)O` [alkaline butyrate ion, reference compound], the colitis entry with mouse colons (mouse, in vivo) is “did not cause colitis”.
As for `CCCC(=O)O` [butyric acid], in the series with mouse colons (1% concentration instilled into mouse colons), the colitis entry is reported as “caused colitis”.
On to `CCCC(=O)[O-].[K+]` [potassium butyrate], for which, in series [1] (volunteer #1), the adverse effects entry is recorded as “No adverse effects occurred except for occasional transient epigastric aching soon after a dose”. Besides, the “cholesterol and cholesterol ratios” value in series [1] (volunteer #1) was “not changed significantly”. The “halitosis or foul eructation” value in series [1] (volunteer #1) is listed as “No halitosis or foul eructation occurred”. In addition, the “liver enzymes and liver function tests” value in series [1] (volunteer #1) is on record as “remained normal”. Also, the weight loss in series [1] (volunteer #1, 3-5 capsules once or twice daily) was 17 pounds; in series [1] (volunteer #2, 3-5 capsules three times per day) it was 40 pounds. Besides, the weight in series [1] (volunteer #1, after 2 months, 130 mg twice a day before meals, starting weight 185 lb) was 174 lb; in series [1] (volunteer #1, after 20 days, 23 then 66 mg twice a day, starting weight 185 lb), 181 lb; in series [1] (volunteer #1, low dose, average 660 mg once a day on alternate days, stayed within 4 lb for the last 5 months), 174 lb; in series [1] (volunteer #2, after 6 months, 560 mg before each meal, starting weight 256 lb), 222 lbs; in series [1] (volunteer #2, after about a year, 1150 mg three times a day for another 8 days, starting weight 256 lb) it was 216 lbs; in series [1] (volunteer #2, after another 6 months at 800 mg three times a day, starting weight 256 lb), 220 lbs. In addition, the triglyceride values in series [1] (volunteer #1, after about 6 months, initially 310) worked out at 230. Also, in series [1] (volunteer #1, after about 7 months, 280 mg twice a day on about half the days, starting weight 185 lb), the “weight, lowest point” value came out at 168 lb. In series [1] (volunteer #1, after about 7 months, starting BMI 27), the “body mass index (BMI)” value is given as 24.5. In addition, in series [1] (volunteer #1, after about 14 months), the “carpal tunnel syndrome symptoms” value was “improved markedly”. Moreover, the blood pressure result in series [1] (volunteer #1, after about 14 months, hypertension before required 4 mg per day Cardura) is listed as “normal without medication”. In series [1] (volunteer #1, checked periodically), the “blood counts and survey chemistries (SMA-18 or comprehensive chemistry)” value is on record as “normal”. Moreover, the HDL cholesterol in series [1] (volunteer #1, over 4 months, from 48) turned out to be 47. The total cholesterol in series [1] (volunteer #1, over 4 months, from 235) came to 236; in series [1] (volunteer #2, dropped from 266) it was 238. Further, the fatigue entry in series [1] (volunteer #2) is reported as “lessened”. The “feeling of general well being” value in series [1] (volunteer #2) is given as “improved”. Further, in series [1] (volunteer #2, after 1 year's use vs previous test), the “exercise tolerance on treadmill exercise stress tests” value was “almost doubled”. The “time able to walk on treadmill in stress test” value in series [1] (volunteer #2, after 1 year's use, previous test 4 minutes) turned out to be 7 min. The BMI in series [1] (volunteer #2, after about a year, starting BMI 40) was found to be 35. In series [1] (volunteer #2, during butyrate use), the “abnormalities on periodic comprehensive chemistry blood tests and blood counts” value is recorded as “no abnormalities have appeared”. The molecule further yielded an HDL in series [1] (volunteer #2, from 56) of 52. For the same molecule, the LDL in series [1] (volunteer #2, from 160) came to 150. In series [1] (volunteer #2, from 269), the triglycerides came out at 179. The molecule also returned a total weight loss in series [1] (volunteer #2, slightly more than one year) of 40 lbs. Besides, the “average weight gain per mouse” value in series [2] (11.1 to 58 mg per mouse twice a day, non-butyrate mice 325 mg) came out at 50 mg; in series [4] (adolescent mice, 10 week experiment, 3.47 then 11.5 mg twice a day, non-butyrate mice 18.6 grams), 17 grams. The “ratio of weight gain, non-butyrate to butyrate mice” value in series [2] (ratio to 1) is listed as “about 6.5”. Besides, the “half-life in the serum” value in series [3] was 2 min. Besides, the tolerability result in series [4] (adolescent mice, 3.47 mg per dose twice a day) is recorded as “well tolerated”. Moreover, in series [4] (adolescent mice, 10 week experiment), the “weight gain less than non-butyrate mice” value is recorded as “about 10%”. Also, the “difference in behavior, activity or agility vs non-butyrate group” value in series [4] (mice) is recorded as “no difference”.
